Legend:
MCF7 [1] = experiment: Cytotoxicity against human MCF7 cells expressing VEGFR2 and wild type BRAF measured after 48 hrs by sulforhodamine B assay; type: functional, cell-based; details: MCF7, 48 h
[2] = biological target: Vascular endothelial growth factor receptor 2 (Homo sapiens, UniProt P35968); experiment: Inhibition of human N-terminal GST tagged VEGFR-2 expressed in baculovirus infected Sf9 cells using poly (Glu,Tyr) 4:1 as substrate in presence of ATP by Kinase-Glo luminescence assay
Vascular endothelial growth factor receptor 2, sequence (P35968 whole entry): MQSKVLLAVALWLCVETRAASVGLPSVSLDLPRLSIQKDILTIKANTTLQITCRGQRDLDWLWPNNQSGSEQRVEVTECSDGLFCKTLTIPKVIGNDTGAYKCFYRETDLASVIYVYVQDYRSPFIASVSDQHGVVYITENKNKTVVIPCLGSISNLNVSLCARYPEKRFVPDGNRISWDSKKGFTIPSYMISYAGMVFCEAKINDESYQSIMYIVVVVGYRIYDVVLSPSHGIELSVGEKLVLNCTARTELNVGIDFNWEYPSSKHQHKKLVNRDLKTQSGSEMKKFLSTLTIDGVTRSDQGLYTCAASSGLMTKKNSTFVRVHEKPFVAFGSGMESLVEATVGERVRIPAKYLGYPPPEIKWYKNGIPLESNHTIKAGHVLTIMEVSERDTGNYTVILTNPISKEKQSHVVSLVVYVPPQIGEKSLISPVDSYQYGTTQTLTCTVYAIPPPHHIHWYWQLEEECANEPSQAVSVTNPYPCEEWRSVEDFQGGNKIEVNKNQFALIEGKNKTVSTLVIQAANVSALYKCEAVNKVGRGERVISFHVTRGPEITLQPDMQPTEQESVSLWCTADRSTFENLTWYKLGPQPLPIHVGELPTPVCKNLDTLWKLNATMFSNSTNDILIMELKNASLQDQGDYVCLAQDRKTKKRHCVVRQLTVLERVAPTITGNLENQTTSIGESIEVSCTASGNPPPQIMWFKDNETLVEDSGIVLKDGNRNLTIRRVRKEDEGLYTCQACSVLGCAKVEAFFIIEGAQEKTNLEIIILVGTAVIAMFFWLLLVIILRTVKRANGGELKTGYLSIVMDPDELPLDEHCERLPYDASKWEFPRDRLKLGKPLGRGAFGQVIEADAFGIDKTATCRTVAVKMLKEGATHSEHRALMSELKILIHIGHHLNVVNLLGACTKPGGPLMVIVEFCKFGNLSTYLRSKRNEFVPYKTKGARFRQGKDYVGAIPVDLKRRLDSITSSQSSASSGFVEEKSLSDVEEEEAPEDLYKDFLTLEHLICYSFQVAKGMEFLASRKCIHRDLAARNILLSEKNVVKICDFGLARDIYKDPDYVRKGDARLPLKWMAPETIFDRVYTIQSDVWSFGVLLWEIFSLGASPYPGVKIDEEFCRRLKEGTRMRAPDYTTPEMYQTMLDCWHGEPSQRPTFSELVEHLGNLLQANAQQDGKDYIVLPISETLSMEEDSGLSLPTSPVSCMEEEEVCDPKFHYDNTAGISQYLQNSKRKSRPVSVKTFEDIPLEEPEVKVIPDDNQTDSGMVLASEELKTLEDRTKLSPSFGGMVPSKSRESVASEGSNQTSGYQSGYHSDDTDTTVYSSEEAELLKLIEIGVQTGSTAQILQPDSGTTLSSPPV

UACC-62 = experiment: Growth inhibition of human UACC62 cells at 10 uM incubated for 48 hrs by sulforhodamine B assay relative to control; type: functional; details: UACC-62, 48 h, read-out: GI
NCI-H226 = experiment: Growth inhibition of human NCI-H226 cells at 10 uM incubated for 48 hrs by sulforhodamine B assay relative to control; type: functional; details: NCI-H226, 48 h, read-out: GI
MDA-MB-231 = experiment: Growth inhibition of human MDA-MB-231 cells at 10 uM incubated for 48 hrs by sulforhodamine B assay relative to control; type: functional; details: MDA-MB-231, 48 h, read-out: GI
Hs-578T = experiment: Growth inhibition of human Hs578T cells at 10 uM incubated for 48 hrs by sulforhodamine B assay relative to control; type: functional; details: read-out: GI
UO-31 = experiment: Growth inhibition of human UO31 cells at 10 uM incubated for 48 hrs by sulforhodamine B assay relative to control; type: functional; details: UO-31, 48 h, read-out: GI
Malme-3M = experiment: Growth inhibition of human MALME-3M cells at 10 uM incubated for 48 hrs by sulforhodamine B assay relative to control; type: functional; details: read-out: GI
A498 = experiment: Growth inhibition of human A498 cells at 10 uM incubated for 48 hrs by sulforhodamine B assay relative to control; type: functional; details: A498, 48 h, read-out: GI
IGROV-1 = experiment: Growth inhibition of human IGROV1 cells at 10 uM incubated for 48 hrs by sulforhodamine B assay relative to control; type: functional; details: IGROV-1, 48 h, read-out: GI
NCI-H522 = experiment: Growth inhibition of human NCI-H522 cells at 10 uM incubated for 48 hrs by sulforhodamine B assay relative to control; type: functional; details: NCI-H522, 48 h, read-out: GI
PC-3 = experiment: Growth inhibition of human PC3 cells at 10 uM incubated for 48 hrs by sulforhodamine B assay relative to control; type: functional; details: PC-3, 48 h, read-out: GI
A549 = experiment: Growth inhibition of human A549/ATCC cells at 10 uM incubated for 48 hrs by sulforhodamine B assay relative to control; type: functional; details: A549, 48 h, read-out: GI
CAKI-1 = experiment: Growth inhibition of human Caki1 cells at 10 uM incubated for 48 hrs by sulforhodamine B assay relative to control; type: functional; details: CAKI-1, 48 h, read-out: GI
SNB-75 = experiment: Growth inhibition of human SNB75 cells at 10 uM incubated for 48 hrs by sulforhodamine B assay relative to control; type: functional; details: SNB-75, 48 h, read-out: GI
EKVX = experiment: Growth inhibition of human EKVX cells at 10 uM incubated for 48 hrs by sulforhodamine B assay relative to control; type: functional; details: read-out: GI
HOP-92 = experiment: Growth inhibition of human HOP92 cells at 10 uM incubated for 48 hrs by sulforhodamine B assay relative to control; type: functional; details: HOP-92, 48 h, read-out: GI
T47D [3] = experiment: Cytotoxicity against human T47D cells expressing wild type BRAF measured after 48 hrs by sulforhodamine B assay; type: functional, cell-based
[4] = biological target: Serine/threonine-protein kinase B-raf (Homo sapiens, UniProt P15056); experiment: Inhibition of human wild type BRAF by Kinase-Glo luminescence assay
Serine/threonine-protein kinase B-raf, sequence (P15056 whole entry): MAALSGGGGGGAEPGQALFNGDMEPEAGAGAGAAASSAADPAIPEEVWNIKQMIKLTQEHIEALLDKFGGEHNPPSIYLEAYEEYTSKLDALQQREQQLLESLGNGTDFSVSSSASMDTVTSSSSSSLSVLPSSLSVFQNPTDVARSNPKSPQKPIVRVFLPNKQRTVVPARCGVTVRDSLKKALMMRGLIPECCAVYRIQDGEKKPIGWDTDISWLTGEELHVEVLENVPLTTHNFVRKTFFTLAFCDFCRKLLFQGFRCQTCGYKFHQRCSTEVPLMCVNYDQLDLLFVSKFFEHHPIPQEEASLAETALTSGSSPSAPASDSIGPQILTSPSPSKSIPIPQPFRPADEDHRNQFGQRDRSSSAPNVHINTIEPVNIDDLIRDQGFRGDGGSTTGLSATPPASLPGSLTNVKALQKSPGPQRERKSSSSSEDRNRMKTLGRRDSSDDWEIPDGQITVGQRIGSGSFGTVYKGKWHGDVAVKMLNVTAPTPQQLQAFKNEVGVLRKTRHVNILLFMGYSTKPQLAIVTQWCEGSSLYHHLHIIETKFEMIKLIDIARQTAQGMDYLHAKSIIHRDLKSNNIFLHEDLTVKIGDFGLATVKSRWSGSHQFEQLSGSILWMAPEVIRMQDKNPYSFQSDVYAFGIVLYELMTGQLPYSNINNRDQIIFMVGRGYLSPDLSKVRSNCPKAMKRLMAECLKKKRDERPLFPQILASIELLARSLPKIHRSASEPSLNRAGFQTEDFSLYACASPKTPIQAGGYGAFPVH

MCF7 [5] = experiment: Inhibition of VEGFR2 level in human MCF7 cells at 10 uM measured after 48 hrs by ELISA relative to control; type: functional; details: MCF7, 48 h
MDA-MB-468 = experiment: Growth inhibition of human MDA-MB-468 cells at 10 uM incubated for 48 hrs by sulforhodamine B assay relative to control; type: functional; details: MDA-MB-468, 48 h, read-out: GI
ACHN = experiment: Growth inhibition of human ACHN cells at 10 uM incubated for 48 hrs by sulforhodamine B assay relative to control; type: functional; details: read-out: GI
HCT-116 = experiment: Growth inhibition of human HCT116 cells at 10 uM incubated for 48 hrs by sulforhodamine B assay relative to control; type: functional; details: HCT-116, 48 h, read-out: GI
CCRF-CEM = experiment: Growth inhibition of human CCRF-CEM cells at 10 uM incubated for 48 hrs by sulforhodamine B assay relative to control; type: functional; details: read-out: GI
LOX IMVI = experiment: Growth inhibition of human LOXIMVI cells at 10 uM incubated for 48 hrs by sulforhodamine B assay relative to control; type: functional; details: read-out: GI
K562 = experiment: Growth inhibition of human K562 cells at 10 uM incubated for 48 hrs by sulforhodamine B assay relative to control; type: functional; details: K562, 48 h, read-out: GI
MCF7 [6] = experiment: Growth inhibition of human MCF7 cells at 10 uM incubated for 48 hrs by sulforhodamine B assay relative to control; type: functional; details: MCF7, 48 h, read-out: GI
NCI-H23 = experiment: Growth inhibition of human NCI-H23 cells at 10 uM incubated for 48 hrs by sulforhodamine B assay relative to control; type: functional; details: NCI-H23, 48 h, read-out: GI
MOLT-4 = experiment: Growth inhibition of human MOLT4 cells at 10 uM incubated for 48 hrs by sulforhodamine B assay relative to control; type: functional; details: MOLT-4, 48 h, read-out: GI
T47D [7] = experiment: Growth inhibition of human T47D cells at 10 uM incubated for 48 hrs by sulforhodamine B assay relative to control; type: functional; details: read-out: GI
SN12C = experiment: Growth inhibition of human SN12C cells at 10 uM incubated for 48 hrs by sulforhodamine B assay relative to control; type: functional; details: read-out: GI
SK-MEL-5 = experiment: Growth inhibition of human SK-MEL-5 cells at 10 uM incubated for 48 hrs by sulforhodamine B assay relative to control; type: functional; details: SK-MEL-5, 48 h, read-out: GI
BT-549 = experiment: Growth inhibition of human BT549 cells at 10 uM incubated for 48 hrs by sulforhodamine B assay relative to control; type: functional; details: BT-549, 48 h, read-out: GI
RPMI-8226 = experiment: Growth inhibition of human RPMI8226 cells at 10 uM incubated for 48 hrs by sulforhodamine B assay relative to control; type: functional; details: RPMI-8226, 48 h, read-out: GI
OVCAR-8 = experiment: Growth inhibition of human OVCAR8 cells at 10 uM incubated for 48 hrs by sulforhodamine B assay relative to control; type: functional; details: OVCAR-8, 48 h, read-out: GI
NCI/ADR-RES = experiment: Growth inhibition of human NCI/ADR-RES cells at 10 uM incubated for 48 hrs by sulforhodamine B assay relative to control; type: functional; details: read-out: GI
SR = experiment: Growth inhibition of human SR cells at 10 uM incubated for 48 hrs by sulforhodamine B assay relative to control; type: functional; details: read-out: GI

O=C(O)c1ccc(Nc2ccnc(SCC(=O)c3ccc(Br)cc3)n2)cc1
IC50 (MCF7 [1]): 81.2 µM
IC50 [2]: > 10 µM

O=C(O)c1ccc(Nc2ccnc(SCC(=O)c3ccc(C(F)(F)F)cc3)n2)cc1
inhibition of growth at 10 µM (UACC-62): 12%
IC50 (MCF7 [1]): 67.5 µM
inhibition of growth at 10 µM (NCI-H226): 13%
inhibition of growth at 10 µM (MDA-MB-231): 24%
inhibition of growth at 10 µM (Hs-578T): 10%
inhibition of growth at 10 µM (UO-31): 32%
inhibition of growth at 10 µM (Malme-3M): 30%
inhibition of growth at 10 µM (A498): 39%
IC50 [2]: > 10 µM
inhibition of growth at 10 µM (IGROV-1): 13%
inhibition of growth at 10 µM (NCI-H522): 15%
inhibition of growth at 10 µM (PC-3): 12%
inhibition of growth at 10 µM (A549): 10%
inhibition of growth at 10 µM (CAKI-1): 19%
inhibition of growth at 10 µM (SNB-75): 28%
inhibition of growth at 10 µM (EKVX): 10%
inhibition of growth at 10 µM (HOP-92): 16%

CC(=O)c1cccc(Nc2ccnc(SCC(=O)c3ccc(Cl)cc3)n2)c1
IC50 (MCF7 [1]): 53.6 µM
IC50 [2]: 0.48 µM
IC50 (T47D [3]): 33 µM

CCOC(=O)c1ccc(Nc2ccnc(SCC(=O)c3ccc(OC)cc3)n2)cc1
IC50 (MCF7 [1]): 32.1 µM
IC50 [2]: 0.19 µM
IC50 (T47D [3]): 43.4 µM
IC50 [4]: 0.41 µM
inhibition at 10 µM (MCF7 [5]): 12%

COc1ccc(C(=O)CSc2nccc(Nc3ccc(C(C)=O)cc3)n2)cc1
IC50 (MCF7 [1]): 80.3 µM
IC50 [2]: 0.49 µM

N#Cc1ccc(C(=O)CSc2nccc(Nc3ccc(N4CCOCC4)cc3)n2)cc1
IC50 (MCF7 [1]): 69 µM
IC50 [2]: 1.1 µM

CNC(=O)c1cc(Oc2ccc(NC(=O)Nc3ccc(Cl)c(C(F)(F)F)c3)cc2)ccn1 [SORAFENIB]
IC50 (MCF7 [1]): 4.33 µM
IC50 (T47D [3]): 1.6 µM
inhibition at 10 µM (MCF7 [5]): 90%

CCOC(=O)c1ccc(Nc2ccnc(SCC(=O)c3ccc(Cl)cc3)n2)cc1
IC50 (MCF7 [1]): 20 µM
IC50 [2]: > 10 µM

O=C(O)c1ccc(Nc2ccnc(SCC(=O)c3ccc([N+](=O)[O-])cc3)n2)cc1
IC50 (MCF7 [1]): 53.2 µM
IC50 [2]: > 10 µM

CCOC(=O)c1ccc(Nc2ccnc(SCC(=O)c3ccc(-c4ccccc4)cc3)n2)cc1
IC50 (MCF7 [1]): 68.5 µM
IC50 [2]: 0.34 µM

O=C(O)c1ccc(Nc2ccnc(SCC(=O)c3ccc(-c4ccccc4)cc3)n2)cc1
IC50 (MCF7 [1]): 49 µM
IC50 [2]: 0.57 µM

N#Cc1ccc(C(=O)CSc2nccc(Nc3ccc(C(=O)O)cc3)n2)cc1
IC50 (MCF7 [1]): 17.2 µM
IC50 [2]: 0.12 µM
IC50 [4]: 1.7 µM
inhibition at 10 µM (MCF7 [5]): 77%

O=C(O)c1ccc(Nc2ccnc(SCC(=O)c3ccc(Cl)cc3)n2)cc1
IC50 (MCF7 [1]): 37.2 µM
IC50 [2]: 0.17 µM
IC50 [4]: 0.37 µM
inhibition at 10 µM (MCF7 [5]): 35%

CCOC(=O)c1ccc(Nc2ccnc(SCC(=O)c3ccc(C(F)(F)F)cc3)n2)cc1
IC50 (MCF7 [1]): 19.6 µM
IC50 [2]: 1.96 µM
IC50 (T47D [3]): 32.1 µM
inhibition at 10 µM (MCF7 [5]): 76%

COc1ccc(C(=O)CSc2nccc(Nc3ccc(C(=O)O)cc3)n2)cc1
IC50 (MCF7 [1]): 37.8 µM
IC50 [2]: 1.43 µM
inhibition at 10 µM (MCF7 [5]): 40%

CC(=O)c1ccc(Nc2ccnc(SCC(=O)c3ccc(Br)cc3)n2)cc1
inhibition of growth at 10 µM (MDA-MB-468): 21%
inhibition of growth at 10 µM (UACC-62): 23%
inhibition of growth at 10 µM (ACHN): 10%
inhibition of growth at 10 µM (HCT-116): 10%
inhibition of growth at 10 µM (CCRF-CEM): 30%
inhibition of growth at 10 µM (LOX IMVI): 14%
inhibition of growth at 10 µM (K562): 30%
inhibition of growth at 10 µM (MCF7 [6]): 18%
IC50 (MCF7 [1]): 17.2 µM
inhibition of growth at 10 µM (NCI-H226): 25%
inhibition of growth at 10 µM (NCI-H23): 16%
inhibition of growth at 10 µM (MDA-MB-231): 12%
inhibition of growth at 10 µM (MOLT-4): 39%
inhibition of growth at 10 µM (UO-31): 38%
inhibition of growth at 10 µM (T47D [7]): 44%
inhibition of growth at 10 µM (A498): 19%
inhibition of growth at 10 µM (SN12C): 14%
inhibition of growth at 10 µM (SK-MEL-5): 17%
IC50 [2]: 0.95 µM
inhibition of growth at 10 µM (IGROV-1): 12%
inhibition of growth at 10 µM (BT-549): 19%
inhibition of growth at 10 µM (RPMI-8226): 35%
inhibition of growth at 10 µM (NCI-H522): 29%
inhibition of growth at 10 µM (PC-3): 25%
inhibition of growth at 10 µM (A549): 10%
inhibition of growth at 10 µM (OVCAR-8): 18%
inhibition of growth at 10 µM (CAKI-1): 24%
inhibition of growth at 10 µM (NCI/ADR-RES): 31%
inhibition of growth at 10 µM (SNB-75): 13%
inhibition of growth at 10 µM (SR): 25%
inhibition at 10 µM (MCF7 [5]): 76%
